From patent US20080267996A1 (priority 2005, published 2008)

Key:
HBsAg = HBsAg / Anti-HBs serotyping (VITROS ECi); type: in vivo, hepatitis B virus; conditions: Week 14/18; Part 2 Group C (n 11)
Method: Serotyping was performed using a VITROS ECi Immunodiagnostic System.

[1] = test system: HBs peptide pools (PreS2 + S ayw) and HbsAg protein; assay: Ex vivo IFN-gamma ELISPOT of patient PBMC; type: in vivo, human; conditions: Part 2 Groups A, B, C
Method: ELISPOT Assays were carried out by Cellular Technology Limited (CTL Laboratory LLC. 10515 Carnegie Ave., Suite 503 Cleveland Ohio 44106, USA) using the following assay conditions:
The following peptides were pooled and used as antigens:
The HBs series of peptides are arranged into 4 distinct pools of peptides, each containing up to 12 total peptides:
The entire HbsAg protein was also used as an antigen.
An ELISPOT response to a peptide pool (or HbsAg protein) was considered to have occurred when the mean +/− standard deviation for the peptide pool, or HbsAg protein, was greater than the mean +3 standard deviations of that patient's negative control.

Nc1ccn([C@@H]2CS[C@H](CO)O2)c(=O)n1 [lamivudine, Lamivudine]
HBsAg−, percent of patients (HBsAg): 9% | baseline immunological responses (detected prior to treatment, unchanged or reduced) [1]: 3 | boosted immunological responses (of baseline responses) [1]: 5/8 | de novo immunological responses (of baseline non-responders) [1]: 0/3
